Tests used:
[1] = molecular target: T1, FBXL11 (Homo sapiens, UniProt Q9Y2K7); test: FBXL11 in vitro enzyme inhibition assay (AlphaScreen); format: biochemical; conditions: Table 3; 0.15 nM FBXL11, H3K36me2-biotin labeled peptide
T1 construct: purchased BPS Bioscience 50102
T1 sequence (Q9Y2K7 1-1162): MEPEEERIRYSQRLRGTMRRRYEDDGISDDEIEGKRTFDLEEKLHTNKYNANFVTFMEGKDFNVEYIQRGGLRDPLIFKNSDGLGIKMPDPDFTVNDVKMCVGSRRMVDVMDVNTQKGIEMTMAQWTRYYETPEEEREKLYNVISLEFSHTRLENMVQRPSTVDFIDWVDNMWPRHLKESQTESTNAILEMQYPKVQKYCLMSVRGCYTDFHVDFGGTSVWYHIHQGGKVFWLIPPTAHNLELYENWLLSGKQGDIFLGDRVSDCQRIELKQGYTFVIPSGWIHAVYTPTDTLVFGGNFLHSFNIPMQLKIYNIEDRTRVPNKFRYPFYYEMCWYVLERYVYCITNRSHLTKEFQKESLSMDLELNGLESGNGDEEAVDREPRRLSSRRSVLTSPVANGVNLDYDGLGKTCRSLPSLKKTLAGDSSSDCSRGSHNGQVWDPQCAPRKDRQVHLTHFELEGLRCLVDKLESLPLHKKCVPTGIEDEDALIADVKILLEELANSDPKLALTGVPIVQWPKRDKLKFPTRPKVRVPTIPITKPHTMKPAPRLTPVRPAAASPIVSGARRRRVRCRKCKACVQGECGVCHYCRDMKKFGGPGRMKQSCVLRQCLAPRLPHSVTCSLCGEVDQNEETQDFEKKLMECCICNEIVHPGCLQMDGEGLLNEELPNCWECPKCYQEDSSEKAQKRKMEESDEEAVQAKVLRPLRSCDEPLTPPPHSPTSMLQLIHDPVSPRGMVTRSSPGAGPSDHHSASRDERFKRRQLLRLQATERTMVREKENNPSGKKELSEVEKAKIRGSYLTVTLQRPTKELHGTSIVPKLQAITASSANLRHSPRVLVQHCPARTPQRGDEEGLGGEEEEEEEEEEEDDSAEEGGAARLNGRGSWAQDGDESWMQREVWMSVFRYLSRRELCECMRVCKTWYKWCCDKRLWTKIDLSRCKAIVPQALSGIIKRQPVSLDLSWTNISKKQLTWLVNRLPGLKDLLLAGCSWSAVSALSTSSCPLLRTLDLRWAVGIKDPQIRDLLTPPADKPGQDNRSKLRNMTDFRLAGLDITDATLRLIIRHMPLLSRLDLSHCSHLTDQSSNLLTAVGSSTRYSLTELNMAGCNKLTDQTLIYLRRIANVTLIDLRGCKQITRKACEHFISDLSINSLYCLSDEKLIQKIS
Description: (§1) This assay determines the ability of a test compound to inhibit FBXL11, FBXL10, and PHF8 demethylase activity. Baculovirus expressed FBXL11 (GenBank Accession #NM_012308, AA1-1162) was purchased from BPS Bioscience (Cat#50102). Baculovirus expressed FBXL10 (GenBank Accession #NM_032590, AA 1-650) was purchased from BPS Bioscience (Cat #50120). Baculovirus expressed PHF8 (GenBank Accession NP_055922.1) was purchased from Active Motif (Cat#31435).
The ability of test compounds to inhibit the activity of FBXL11 was determined in 384-well plate format under the following reaction conditions: 0.15 nM FBXL11, 30 nM H3K36me2-biotin labeled peptide (Anaspec cat # 64442), 0.2 µM alpha-ketoglutaric acid in assay buffer of 50 mM HEPES, pH7.3, 0.005% Brij35, 0.5 mM TCEP, 0.2 mg/ml BSA, 50 µM sodium L-ascorbate, 5 µM ammonium iron(II) sulfate. Reaction product is determined quantitatively by AlphaScreen detection after the addition of detection reagents anti-H3K36me1 antibody, AlphaScreen® Streptavidin-coated Donor beads, and AlphaScreen® Protein A Acceptor beads in 50 mM HEPES, pH7.3, 10 mM NaCl, 0.005% Brij35, 5 mM EDTA, 2 mg/ml BSA to final 10 µg/ml beads.
The assay reaction was initiated by the following: 3 µl of the mixture of 90 nM H3K36me2-biotin labeled peptide and 0.6 µM alpha-ketoglutaric acid with 3 µl of 11-point serial diluted inhibitor in 3% DMSO are added to each well of 384 well Proxiplate (Perkin Elmer), followed by the addition of 3 µl of 0.45 nM FBXL11 to initiate the reaction. The reaction mixture is incubated at room temperature for 1 hour, and terminated by the addition of 3 µl of appropriate dilution of anti H3K36me1 antibody in 50 mM HEPES, pH7.3, 10 mM NaCl, 0.005% Brij35, 5 mM EDTA, 2 mg/ml BSA. Plates will then incubated at room temperature for 40 minutes, followed by addition of 3 µl of 50 µg/ml AlphaScreen® Streptavidin-coated Donor beads and AlphaScreen® Protein A Acceptor beads in 50 mM HEPES, pH7.3, 10 mM NaCl, 0.005% Brij35, 5 mM EDTA, 2 mg/ml BSA. Plates will then be read by EnVision Multilabel Reader in AlphaScreen mode after minimum 2 hour incubation at room temperature. The AlphaScreen signal for each well is used to determine inhibition constant (IC50).

[2] = molecular target: T2, PHF8 (Homo sapiens, UniProt Q9UPP1); test: PHF8 in vitro enzyme inhibition assay (TR-FRET); format: biochemical; conditions: Table 3; 3 nM PHF8, H3K9me1-biotin labeled peptide
T2 construct: purchased Active Motif 31435
Description: as §1
The ability of test compounds to inhibit the activity of PHF8 was determined in 384-well plate format under the following reaction conditions: 3 nM PHF8, 200 nM H3K9me1-biotin labeled peptide (Anaspec cat #64358), 0.5 µM alpha-ketoglutaric acid in assay buffer of 50 mM HEPES, pH7.3, 0.005% Brij35, 0.5 mM TCEP, 0.2 mg/ml BSA, 50 µM sodium L-ascorbate, and 5 µM ammonium iron(II) sulfate. Reaction product was determined quantitatively by TR-FRET after the addition of detection reagent Phycolink Streptavidin-allophycocyanin (Prozyme) and Europium-anti-unmodified-histone H3 lysine 9/lysine27 (H3K9/K27) antibody (PerkinElmer) in the presence of 5 mM EDTA in LANCE detection buffer (PerkinElmer) at a final concentration of 25 nM and 0.5 nM, respectively.
The assay reaction was initiated by the following: 2 µl of the mixture of 600 nM H3K9me1-biotin labeled peptide and 1.5 µM alpha-ketoglutaric acid with 2 µl of 11-point serial diluted inhibitor in 3% DMSO were added to each well of the plate, followed by the addition of 2 µl of 9 nM PHF8 to initiate the reaction. The reaction mixture was incubated at room temperature for 15 minutes, and terminated by the addition of 6 µl of 5 mM EDTA in LANCE detection buffer containing 50 nM Phycolink Streptavidin-allophycocyanin and 1 nM Europium-anti-unmodified H3K9/K27 antibody. Plates were read by EnVision Multilabel Reader in TR-FRET mode (excitation at 320 nm, emission at 615 nm and 665 nm) after 1 hour incubation at room temperature. A ratio was calculated (665/615) for each well and fitted to determine inhibition constant (IC50).

T2 sequence (Q9UPP1 37-1060): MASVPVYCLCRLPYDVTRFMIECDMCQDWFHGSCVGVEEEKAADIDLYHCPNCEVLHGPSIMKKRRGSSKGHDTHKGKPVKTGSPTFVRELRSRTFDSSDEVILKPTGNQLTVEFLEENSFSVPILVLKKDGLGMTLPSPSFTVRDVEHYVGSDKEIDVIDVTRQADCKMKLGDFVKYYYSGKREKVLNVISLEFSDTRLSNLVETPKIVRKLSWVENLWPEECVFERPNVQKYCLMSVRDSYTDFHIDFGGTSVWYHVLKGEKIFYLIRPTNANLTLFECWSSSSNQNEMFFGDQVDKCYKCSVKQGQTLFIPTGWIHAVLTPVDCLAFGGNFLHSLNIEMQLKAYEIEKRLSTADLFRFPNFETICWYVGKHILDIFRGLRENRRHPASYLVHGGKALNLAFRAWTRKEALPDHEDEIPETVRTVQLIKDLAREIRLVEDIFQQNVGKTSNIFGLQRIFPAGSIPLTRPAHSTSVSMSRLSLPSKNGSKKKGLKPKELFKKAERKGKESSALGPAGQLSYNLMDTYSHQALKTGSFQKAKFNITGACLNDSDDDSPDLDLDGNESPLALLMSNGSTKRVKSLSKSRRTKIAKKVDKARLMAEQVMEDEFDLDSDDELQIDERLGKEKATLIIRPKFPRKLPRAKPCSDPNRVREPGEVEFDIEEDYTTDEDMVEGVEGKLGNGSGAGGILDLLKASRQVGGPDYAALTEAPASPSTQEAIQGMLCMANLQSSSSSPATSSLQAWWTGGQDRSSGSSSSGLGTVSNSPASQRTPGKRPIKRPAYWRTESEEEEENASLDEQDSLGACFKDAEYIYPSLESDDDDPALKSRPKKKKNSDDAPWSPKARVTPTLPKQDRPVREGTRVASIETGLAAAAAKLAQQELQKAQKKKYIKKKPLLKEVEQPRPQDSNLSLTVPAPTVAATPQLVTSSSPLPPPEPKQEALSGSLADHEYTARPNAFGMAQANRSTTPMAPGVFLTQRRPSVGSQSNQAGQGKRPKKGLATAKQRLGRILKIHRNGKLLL

Row | Structure (SMILES) | IC50 [1] | IC50 [2]
1 | Clc1ccc(Cn2cnc(-c3cc4[nH]nnc4cn3)c2)cc1Cl [Example 48, 1-[(3,4-dichlorophenyl)methyl]-4-{1H-[1,2,3]triazolo[4,5-c]pyridin-6-yl}-1H-imidazole] | ≤ 0.1 µM | 1 to 10 µM
2 | Clc1cccc(-n2cnc(-c3cc4[nH]nnc4cn3)c2)c1 [Example 51, 1-(3-chlorophenyl)-4-{1H-[1,2,3]triazolo[4,5-c]pyridin-6-yl}-1H-imidazole] | 0.1 to 1 µM | 1 to 10 µM
3 | c1ccc(Cn2cnc(-c3cc4[nH]nnc4cn3)c2)cc1 [Example 44, 1-benzyl-4-{1H-[1,2,3]triazolo[4,5-c]pyridin-6-yl}-1H-imidazole] | ≤ 0.1 µM | 0.1 to 1 µM
4 | Clc1cccc(Cn2cnc(-c3cc4[nH]nnc4cn3)c2)c1 [Example 46, 1-[(3-chlorophenyl)methyl]-4-{1H-[1,2,3]triazolo[4,5-c]pyridin-6-yl}-1H-imidazole] | ≤ 0.1 µM | 1 to 10 µM
5 | Clc1ccccc1-n1cnc(-c2cc3[nH]nnc3cn2)c1 [Example 50, 1-(2-chlorophenyl)-4-{1H-[1,2,3]triazolo[4,5-c]pyridin-6-yl}-1H-imidazole] | ≤ 0.1 µM | 1 to 10 µM
6 | Clc1ccc(Cn2cnc(-c3cc4[nH]nnc4cn3)c2)cc1 [Example 47, 1-[(4-chlorophenyl)methyl]-4-{1H-[1,2,3]triazolo[4,5-c]pyridin-6-yl}-1H-imidazole] | ≤ 0.1 µM | 1 to 10 µM
7 | Clc1ccccc1Cn1cnc(-c2cc3[nH]nnc3cn2)c1 [Example 45, 1-[(2-chlorophenyl)methyl]-4-{1H-[1,2,3]triazolo[4,5-c]pyridin-6-yl}-1H-imidazole] | ≤ 0.1 µM | 1 to 10 µM
8 | Clc1ccc(-n2cnc(-c3cc4[nH]nnc4cn3)c2)cc1 [Example 49, 1-(4-chlorophenyl)-4-{1H-[1,2,3]triazolo[4,5-c]pyridin-6-yl}-1H-imidazole] | ≤ 0.1 µM | 1 to 10 µM
